Measured values published in ChEMBL document CHEMBL1201862, “PubChem BioAssay data set” (2004).
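Where inhibition never reached the appropriate level, the endpoint shown equals the highest concentration tested. Otherwise, values were interpolated linearly from a five-concentration, 48-hour dose response in 96-well plates. At the GI50, growth is halved.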 Active and inactive are the calls of the source. No stated cut-off is given here; in the data, active = GI50 up to about 1.1 µM and inactive = higher.

Columns and labels:
Assay in all cases: NCI anticancer screen, dose series, 48 h
786-0 = system: 786-0
A498 = system: A498
A549 = system: A549
ACHN = system: ACHN
CAKI-1 = system: CAKI-1
CCRF-CEM = system: CCRF-CEM
COLO 205 = system: COLO 205
DU-145 = system: DU-145
EKVX = system: EKVX
HCC 2998 = system: HCC 2998
HCT-116 = system: HCT-116
HCT-15 = system: HCT-15
HL-60 = system: HL-60
HOP-62 = system: HOP-62
HOP-92 = system: HOP-92
HT-29 = system: HT-29
Hs-578T = system: Hs-578T
IGROV-1 = system: IGROV-1
K562 = system: K562
KM12 = system: KM12
LOX IMVI = system: LOX IMVI
M14 = system: M14
MCF7 = system: MCF7
MDA-MB-231 = system: MDA-MB-231
MDA-MB-435 = system: MDA-MB-435
MDA-N = system: MDA-N
MOLT-4 = system: MOLT-4
Malme-3M = system: Malme-3M
NCI-H226 = system: NCI-H226
NCI-H23 = system: NCI-H23
NCI-H460 = system: NCI-H460
NCI-H522 = system: NCI-H522
NCI/ADR-RES = system: NCI/ADR-RES
OVCAR-3 = system: OVCAR-3
OVCAR-4 = system: OVCAR-4
OVCAR-5 = system: OVCAR-5
OVCAR-8 = system: OVCAR-8
PC-3 = system: PC-3
RPMI-8226 = system: RPMI-8226
RXF 393 = system: RXF 393
SF-268 = system: SF-268
SF-295 = system: SF-295
SF-539 = system: SF-539
SK-MEL-28 = system: SK-MEL-28
SK-MEL-2 = system: SK-MEL-2
SK-MEL-5 = system: SK-MEL-5
SK-OV-3 = system: SK-OV-3
SN12C = system: SN12C
SNB-19 = system: SNB-19
SNB-75 = system: SNB-75
SR = system: SR
SW-620 = system: SW-620
T47D = system: T47D
TK-10 = system: TK-10
U-251 = system: U-251
UACC-257 = system: UACC-257
UACC-62 = system: UACC-62
UO-31 = system: UO-31
BT-549 = system: BT-549

`COC(=O)c1c(O)ccc2c1c1cc3ccccc3cc1n2Cc1cc(OC)cc(OC)c1` was tested. Which GI50 (786-0) did it give?
Its GI50 is 3.55 µM (inactive).

What about the GI50 (A498) of the same compound?
The GI50 was 9.02 µM (inactive).

And the GI50 (A549)?
The GI50 was 3.37 µM (inactive).

What about the GI50 (ACHN) of the same compound?
The GI50 was 1.74 µM (inactive).

What about the GI50 (CAKI-1) of the same compound?
The GI50 was 2.18 µM (inactive).

What about the GI50 (CCRF-CEM) of the same compound?
Its GI50 is 1.66 µM (inactive).

And the GI50 (COLO 205)?
Its GI50 is 10.1 µM (inactive).

And the GI50 (DU-145)?
Its GI50 is 2.53 µM (inactive).

What about the GI50 (EKVX) of the same compound?
The GI50 was 6.3 µM (inactive).

And the GI50 (HCC 2998)?
The GI50 was 3.88 µM (inactive).

And the GI50 (HCT-116)?
Its GI50 is 1.13 µM (inactive).

What about the GI50 (HCT-15) of the same compound?
The GI50 was 1.46 µM.

And the GI50 (HL-60)?
The GI50 was 2.92 µM (inactive).

And the GI50 (HOP-62)?
The GI50 was 3.23 µM (inactive).

And the GI50 (HOP-92)?
The GI50 was 11.7 µM (inactive).

And the GI50 (HT-29)?
Its GI50 is 11 µM (inactive).

What about the GI50 (Hs-578T) of the same compound?
The GI50 was 2.45 µM (inactive).

What about the GI50 (IGROV-1) of the same compound?
Its GI50 is 0.678 µM (active).

And the GI50 (K562)?
The GI50 was 1.96 µM (inactive).

And the GI50 (KM12)?
The GI50 was 0.805 µM (active).

And the GI50 (LOX IMVI)?
Its GI50 is 9.31 µM (inactive).

And the GI50 (M14)?
The GI50 was 2.25 µM (inactive).

And the GI50 (MCF7)?
The GI50 was 1.73 µM (inactive).

And the GI50 (MDA-MB-231)?
Its GI50 is 6.55 µM (inactive).

What about the GI50 (MDA-MB-435) of the same compound?
The GI50 was 0.321 µM (active).

What about the GI50 (MDA-N) of the same compound?
Its GI50 is 0.43 µM (active).

And the GI50 (MOLT-4)?
The GI50 was 21.7 µM (inactive).

And the GI50 (Malme-3M)?
Its GI50 is 1.22 µM (inactive).

And the GI50 (NCI-H226)?
Its GI50 is 14.9 µM (inactive).

And the GI50 (NCI-H23)?
The GI50 was 4.53 µM (inactive).

And the GI50 (NCI-H460)?
The GI50 was 2.57 µM (inactive).

What about the GI50 (NCI-H522) of the same compound?
The GI50 was 0.194 µM (active).

And the GI50 (NCI/ADR-RES)?
The GI50 was 1.4 µM (inactive).

And the GI50 (OVCAR-3)?
The GI50 was 0.339 µM (active).

What about the GI50 (OVCAR-4) of the same compound?
Its GI50 is 9.84 µM (inactive).

What about the GI50 (OVCAR-5) of the same compound?
Its GI50 is 9.64 µM (inactive).

What about the GI50 (OVCAR-8) of the same compound?
Its GI50 is 6.38 µM (inactive).

And the GI50 (PC-3)?
Its GI50 is 2.46 µM (inactive).

And the GI50 (RPMI-8226)?
Its GI50 is 1.96 µM (inactive).

What about the GI50 (RXF 393) of the same compound?
Its GI50 is 3.96 µM (inactive).

What about the GI50 (SF-268) of the same compound?
Its GI50 is 2.75 µM (inactive).

And the GI50 (SF-295)?
Its GI50 is 1.11 µM (active).

What about the GI50 (SF-539) of the same compound?
Its GI50 is 1.86 µM (inactive).

And the GI50 (SK-MEL-28)?
The GI50 was 1.66 µM (inactive).

And the GI50 (SK-MEL-2)?
Its GI50 is 1.22 µM (inactive).

And the GI50 (SK-MEL-5)?
The GI50 was 1.34 µM (inactive).

And the GI50 (SK-OV-3)?
Its GI50 is 1.43 µM (inactive).

What about the GI50 (SN12C) of the same compound?
Its GI50 is 7.85 µM (inactive).

And the GI50 (SNB-19)?
Its GI50 is 5.82 µM (inactive).

And the GI50 (SNB-75)?
The GI50 was 2.51 µM (inactive).

What about the GI50 (SR) of the same compound?
The GI50 was 1.04 µM (active).

And the GI50 (SW-620)?
Its GI50 is 3.61 µM (inactive).

What about the GI50 (T47D) of the same compound?
The GI50 was 3.06 µM (inactive).

And the GI50 (TK-10)?
Its GI50 is > 23.2 µM (inactive).

What about the GI50 (U-251) of the same compound?
The GI50 was 4.45 µM (inactive).

And the GI50 (UACC-257)?
The GI50 was 9.73 µM (inactive).

What about the GI50 (UACC-62) of the same compound?
Its GI50 is 3.13 µM (inactive).

What about the GI50 (UO-31) of the same compound?
The GI50 was 3.17 µM (inactive).

Which GI50 (786-0) does the source give for `Nn1c(CNc2ccc(-c3nnc(Nc4ccc(Cl)cc4)n3N)cc2)nnc1Nc1ccc(Cl)cc1` here?
Its GI50 is > 100 µM (inactive).

What about the GI50 (A498) of the same compound?
Its GI50 is > 100 µM (inactive).

What about the GI50 (A549) of the same compound?
The GI50 was > 100 µM (inactive).

And the GI50 (ACHN)?
Its GI50 is > 100 µM (inactive).

What about the GI50 (BT-549) of the same compound?
Its GI50 is > 100 µM (inactive).

What about the GI50 (CAKI-1) of the same compound?
Its GI50 is > 100 µM (inactive).

And the GI50 (COLO 205)?
The GI50 was > 100 µM (inactive).

What about the GI50 (DU-145) of the same compound?
The GI50 was > 100 µM (inactive).

And the GI50 (EKVX)?
Its GI50 is > 100 µM (inactive).

What about the GI50 (HCC 2998) of the same compound?
The GI50 was > 100 µM (inactive).

What about the GI50 (HCT-116) of the same compound?
Its GI50 is 37.1 µM (inactive).

And the GI50 (HCT-15)?
Its GI50 is greater than 100 µM.

And the GI50 (HOP-62)?
The GI50 was 34.1 µM (inactive).

What about the GI50 (HOP-92) of the same compound?
The GI50 was > 100 µM (inactive).

What about the GI50 (HT-29) of the same compound?
Its GI50 is 44.2 µM (inactive).

And the GI50 (IGROV-1)?
Its GI50 is > 100 µM (inactive).

And the GI50 (K562)?
Its GI50 is 67.9 µM (inactive).

What about the GI50 (KM12) of the same compound?
Its GI50 is > 100 µM (inactive).

And the GI50 (M14)?
Its GI50 is 51.6 µM (inactive).

What about the GI50 (MCF7) of the same compound?
The GI50 was 61.1 µM (inactive).

And the GI50 (MDA-MB-231)?
Its GI50 is > 100 µM (inactive).

And the GI50 (MDA-MB-435)?
Its GI50 is > 100 µM (inactive).

What about the GI50 (MDA-N) of the same compound?
The GI50 was 80.7 µM (inactive).

And the GI50 (MOLT-4)?
The GI50 was 55.7 µM (inactive).

What about the GI50 (Malme-3M) of the same compound?
Its GI50 is > 100 µM (inactive).

What about the GI50 (NCI-H226) of the same compound?
The GI50 was > 100 µM (inactive).

And the GI50 (NCI-H23)?
The GI50 was > 100 µM (inactive).

What about the GI50 (NCI-H460) of the same compound?
Its GI50 is > 100 µM (inactive).

And the GI50 (NCI-H522)?
The GI50 was 75.5 µM (inactive).

What about the GI50 (NCI/ADR-RES) of the same compound?
Its GI50 is > 100 µM (inactive).

What about the GI50 (OVCAR-4) of the same compound?
Its GI50 is > 100 µM (inactive).

What about the GI50 (OVCAR-5) of the same compound?
Its GI50 is > 100 µM (inactive).

What about the GI50 (PC-3) of the same compound?
Its GI50 is > 100 µM (inactive).

And the GI50 (RPMI-8226)?
The GI50 was 61.9 µM (inactive).

What about the GI50 (RXF 393) of the same compound?
Its GI50 is > 100 µM (inactive).

What about the GI50 (SF-268) of the same compound?
The GI50 was > 100 µM (inactive).

And the GI50 (SF-295)?
The GI50 was > 100 µM (inactive).

And the GI50 (SK-MEL-28)?
The GI50 was > 100 µM (inactive).

And the GI50 (SK-MEL-2)?
The GI50 was > 100 µM (inactive).

What about the GI50 (SK-MEL-5) of the same compound?
The GI50 was > 100 µM (inactive).

What about the GI50 (SK-OV-3) of the same compound?
The GI50 was > 100 µM (inactive).

What about the GI50 (SN12C) of the same compound?
The GI50 was > 100 µM (inactive).

What about the GI50 (SNB-19) of the same compound?
Its GI50 is > 100 µM (inactive).

And the GI50 (SNB-75)?
The GI50 was > 100 µM (inactive).

What about the GI50 (SW-620) of the same compound?
The GI50 was > 100 µM (inactive).

And the GI50 (TK-10)?
Its GI50 is > 100 µM (inactive).

What about the GI50 (U-251) of the same compound?
Its GI50 is > 100 µM (inactive).

What about the GI50 (UACC-257) of the same compound?
Its GI50 is > 100 µM (inactive).

And the GI50 (UACC-62)?
Its GI50 is 50.9 µM (inactive).

And the GI50 (UO-31)?
The GI50 was 61.4 µM (inactive).
